Measurements published in paper PMC4795541, “A Rapid and Quantitative Flow Cytometry Method for the Analysis of Membrane Disruptive Antimicrobial Activity” (PLoS ONE, 2016).
In brackets after ≈: the same amount, converted by molar mass. Where two headings read alike, the source gives them in different places. Marks after values point to notes of the source that are not given here. Where no end group is shown, it is not given here.

Key:
F. nucleatum ATCC 25586 [1] = test system: F. nucleatum ATCC 25586
Description: (§1) The bacterial strains; Fusobacterium nucleatum ATCC 25586, Streptococcus mutans Ingbritt, Staphylococcus aureus (MSSA) ATCC 29213; Staphylococcus aureus (MRSA) ATCC 43300; Enterococcus faecalis ATCC 29212; Enterobacter aerogenes ATCC 13048; Pseudomonas aeruginosa strain PAO1-LAC, ATCC 47085; Klebsiella pneumoniae ATCC 13883; Acinetobacter baumannii strain 2208, ATCC 19606; Escherichia coli ATCC 25922 lyophilised or glycerol stocks were obtained from the culture collection of the Oral Health Cooperative Research Centre, The Melbourne Dental School, University of Melbourne, Australia. These strains were selected for this study as they are widely used in antimicrobial studies and are considered to be important pathogens and major targets for antibiotic resistant studies. Bacteria were grown aerobically and maintained by passage at ambient temperature (E. coli, K. pneumoniae, A. baumannii and S. aureus strains) or at 37°C (P. aeruginosa, E. faecalis and E. aerogenes) on horse blood agar (10% v/v defibrinated horse blood, 4.4% w/v Oxoid Blood Agar Base No. 2). S. mutans and F. nucleatum were grown anaerobically (MK3 anaerobic workstation, Don Whitley Scientific Limited, England) and maintained by passage at 37°C on Todd Hewitt agar (3.6% w/v Oxoid Todd-Hewitt Broth, 1.5% w/v sucrose, 1.5% w/v BactoTM Agar, 0.8% w/v Oxoid Yeast Extract) or horse blood agar, respectively. For the antimicrobial peptide assays a 20 mL starter culture was produced by taking single colonies from blood or Todd Hewitt agar plates, respectively, to inoculate either: Luria Broth (LB; 1% w/v BactoTM Tryptone, 1% w/v NaCl, 0.5% w/v Oxoid Yeast Extract, pH 7.5, Thermo Scientific Pty, Ltd, Sydney, Australia) for bacteria; E. coli, K. pneumoniae, P. aeruginosa, A. baumannii, E. faecalis, E. aerogenes and S. aureus which were grown aerobically at 37°C, or Todd Hewitt broth (3.6% w/v Oxoid Todd-Hewitt Broth, 1.5% w/v sucrose, 0.8% w/v Oxoid Yeast 9 Extract) for S. mutans, or Brain Heart Infusion broth (BHI; 3.7% w/v Oxoid BHI, 0.05% w/v L-cysteine) for F. nucleatum which were both grown anaerobically at 37°C. After overnight incubation, 0.5–2.0 mL of the starter culture was used to inoculate the appropriate fresh broth (200 mL) and growth monitored at 650 nm using a spectrophotometer (model 275E; Perkin-Elmer, Sydney, Australia) with culture purity checked by microscopic examination and culture. Bacteria were harvested during late exponential growth phase and viability and bacteria/mL determined using a BacLight viability kit (Invitrogen, Sydney, Australia) and a Quanta SC-MPL flow cytometer (Beckman coulter Pty, Ltd, Sydney, Australia).
(§2) Antibacterial assays were undertaken to determinate the minimum inhibitory concentration (MIC), minimum bactericidal concentration (MBC) and minimum membrane disruptive concentration (MDC) of each of the antimicrobial peptides (AMP) and AMP analogues (S1 Table). For each bacterim a stock solution (2.5 × 10^6 cells/mL) in the respective media was made and an aliquot incubated with AMPs within 15 minutes from viable cell count and stock preparation. All AMPs were dissolved in DMSO and a 500 μM stock solution prepared by adding the respective media and serial dilutions (250–0.244 μM) of the AMP in media (100 μL/well) made just prior addition of bacteria. […] One hundred microliter aliquots of the bacterial stock solution (2.5 × 10^5 cells/well) were added to the AMP serial dilutions and incubated at 37°C for 90 min. Assay preparation and incubations were conducted in aerobic or anaerobic conditions dependent on the bacteria. Bacteria were also incubated in the absence of AMP to serve as a growth control for the assay. After the 90 minute incubation period the antimicrobial activity (MIC, MBC and MDC) was determined as follows;
(§3) For MIC the CLSI broth microdilution assay was followed as we have previously described.

S. mutans Ingbritt [2] = test system: S. mutans Ingbritt
Description: as §1, §2, §3

F. nucleatum ATCC 25586 [3] = test system: F. nucleatum ATCC 25586; remark: listed apart in the source
Description: as §1, §2
(§4) For determination of MBC, the CLSI protocol was followed, with the modifications being that due to the rapid action of the AMPs the assay incubation time was shortened from 16–20 hours to 90 minutes.

S. mutans Ingbritt [4] = test system: S. mutans Ingbritt; remark: listed apart in the source
Description: as §1, §2, §4

sheep red blood cells = assay: Hemolysis assay; format: cell-based
Method: Fresh sheep red blood cells in Alsever’s solution (RBCs, Equicell, Victoria, Australia) were diluted 1 in 20 in PBS (pH 7.4), pelleted by centrifugation, and washed three times in PBS (1000 g, 10 min). The RBCs were counted using a cell counter (Coulter Particle Counter Z series, Beckman Coulter) and diluted to a final concentration of 2 × 10^7 cells/mL. […] Following incubation, the RBCs were pelleted centrifuged (1000 g, 10 min) and the amount of haemoglobin in 100 μL aliquots determined by measuring the absorbance at 405 nm using a microplate reader (PerkinElmer 1420 Multilabel Counter VICTOR3). Positive and negative controls for hemolysis were taken as RBC lysed with 0.5% Triton X-100 (1:1 v/v) and RBC suspension in PBS, respectively. The percentage of hemolysis was calculated using the following formula: % Hemolysis = [(A405 test sample—A405 negative control) / (A405 positive control—A405 negative control)] × 100
The percentage hemolysis was plotted against peptide concentration and linear regression analysis was used to determine the hemolytic concentration needed to lyse 50% (HC50) of RBCs.

[5] = test system: HEK-293 (ATCC CRL-1573) cells; assay: Inhibition of cell proliferation assay (MTS); format: cell-based
Method: After 28 h, 20 μL of 3-(4,5-dimethylthiazol-2-yl)-5-(3-carboxymethoxyphenyl)-2-(4-sulfophenyl)-2H-tetrazolium (MTS) solution (CellTiter 96 AQueous Non-Radioactive Cell Proliferation Assay kit, Promega) were added to each well and the plates were incubated for a further 1–2 h at 37°C, 5% CO2 incubator. Cell proliferation was determined by measuring absorbance at 490 nm using a microplate reader (PerkinElmer 1420 Multilabel Counter VICTOR3). Positive and negative controls for inhibition were taken as HEK-293 cells incubated with mytomycin C (5 μg/mL, Sigma Pty Ltd) and HEK-293 cells incubated in media alone, respectively. The percentage of inhibition was calculated using the following formula: % Inhibition = [(A490 test sample—A490 negative control) / (A490 positive control—A490 negative control)] × 100
The percentage of inhibition was plotted against peptide concentration and linear regression analysis was used to determine the AMP concentration needed to inhibit 50% (IC50) of the HEK-293 cells.

Which results are given for CC[C@H](C)[C@H](NC(=O)CN)C(=O)NCC(=O)N[C@@H](C)C(=O)N[C@H](C(=O)N[C@@H](CC(C)C)C(=O)N[C@@H](CCCCN)C(=O)N[C@H](C(=O)N[C@@H](CC(C)C)C(=O)N[C@H](C(=O)N[C@H](C(=O)NCC(=O)N[C@@H](CC(C)C)C(=O)N1CCC[C@H]1C(=O)N[C@@H](C)C(=O)N[C@@H](CC(C)C)C(=O)N[C@H](C(=O)N[C@@H](CO)C(=O)N[C@@H](Cc1c[nH]c2ccccc12)C(=O)N[C@H](C(=O)N[C@@H](CCCCN)C(=O)N[C@@H](CCCNC(=N)N)C(=O)N[C@@H](CCCCN)C(=O)N[C@@H](CCCNC(=N)N)C(=O)N[C@@H](CCC(N)=O)C(=O)N[C@@H](CCC(N)=O)C(N)=O)[C@@H](C)CC)[C@@H](C)CC)[C@@H](C)O)[C@@H](C)O)C(C)C)C(C)C [Melittin]?
MIC (F. nucleatum ATCC 25586 [1]; F. nucleatum ATCC 25586, 2.5 × 10^5 cells/well, 90 min peptide/bacteria incubation at 37°C, then growth at OD650, average of 3 assays ± SD): 4.4 ± 0.3 µM (≈ 12.5 µg/mL); average MIC/MBC value (F. nucleatum ATCC 25586 [1]; F. nucleatum, average of MIC and MBC): 4.0 µM; MIC (S. mutans Ingbritt [2]; S. mutans Ingbritt, 90 min peptide/bacteria incubation at 37°C, then growth at OD650, average of 3 assays ± SD): 6.1 ± 0.9 µM (≈ 17.4 µg/mL); MBC (F. nucleatum ATCC 25586 [3]; F. nucleatum ATCC 25586, 90 min peptide/bacteria incubation, CFU on agar, ≥ 99.9% reduction, average of 3 assays ± SD): 3.8 ± 0.4 µM (≈ 10.8 µg/mL); MBC (S. mutans Ingbritt [4]; S. mutans Ingbritt, 90 min peptide/bacteria incubation, CFU on agar, ≥ 99.9% reduction, average of 3 assays ± SD): 4.2 ± 2.4 µM (≈ 12 µg/mL)

How did the “Therapeutic Index (hemolysis)” value (sheep red blood cells; HC50/MDC50 (F. nucleatum), given as x : 1) turn out when “GIGKFLHAAKKFAKAFVAEIMNS-NH2 [Ala-Magainin]” was run?
Its value is 24 : 1.

What about the “Hemolysis (HC50)” value (sheep red blood cells; pH 7.4) of the same molecule?
Its value is 9.6 ± 0.9 µM.

What about the MIC (F. nucleatum ATCC 25586 [1]; ATCC 25586, 24 h) of the same molecule?
The MIC was 0.6±0.1^c μM.

And the MIC (S. mutans Ingbritt [2]; Ingbritt, 24 h)?
The MIC was 7.1±0.7^c μM.

And the IC50 ([5]; HEK-293 cells 5×10^3, EMEM + 10% FBS, 28 h, MTS, A490, linear regression, maximum peptide concentration = 1000 µM)?
Its IC50 is 5.6 ± 1.4 µM.

And the “Therapeutic Index (proliferation)” value ([5]; IC50/MDC50 (F. nucleatum), given as x : 1)?
The value was 14.0 : 1.

What about the MBC (F. nucleatum ATCC 25586 [3]; ATCC 25586) of the same molecule?
The MBC was 0.4±0.1^c μM.

What about the MBC (S. mutans Ingbritt [4]; Ingbritt) of the same molecule?
The MBC was 3.4±0.5^c μM.
